Patent US12384767B2, “Probe for detection of cathepsin activity” (University of Florida Research Foundation, Incorporated, priority 2020, dated 2025)
Like-named read-outs stand apart in the source and are kept apart here. Residues, ends and D or L forms follow the SMILES beside them. *: point of attachment. AMC = Cc1cc(=O)oc2cc(N*)ccc12; Cbz = O=C(OCc1ccccc1)*

Columns and labels:
[1] = molecular target: T1, CTV (Human Cathepsin V/Cathepsin L2) (Homo sapiens, UniProt O60911); assay: Time-course cathepsin assay, CTV signal normalized to CTL; format: biochemical; conditions: 5 uM probe, 5 nM enzyme, lowest competing signal over time course
T1 construct: His; purchased Sino Biological 10093-H08H
Description: (§1) CTV and CTB appear to remain within the initial velocity region of the curves during this time, with a markedly lower slope than that observed for CTL initially.
(§2) The kinetic assays were repeated at pH 5.0 (FIG. 3C, D), and overall the same trends were observed as at pH 6.5. One notable difference is the altered reaction slope of CTL at this pH, which appears to have less of a plateau and instead seems to shift to a second phase of constant, yet slower, velocity. […] This improved activity of CTB at low pH is consistent with previous observations that CTB's unique carboxypeptidase activity is dependent on an acidic environment, and that this activity is disengaged at neutral pH^13.
(§3) To estimate relative selectivity of the compounds for CTL over the other enzymes, the intensity at each time point for CTB, CTV, or CTS, was divided by the intensity of CTL at the same time point; this normalizes CTL-generated signal intensity to 1.0, and expresses the relative signal generated by the other enzymes (FIG. 5). These graphs indicate that off-target signal is least prominent within the first 10 min of incubation, as the faster kinetics of the probes to CTL generate more contrast at these earlier time points. To quantify the selectivity of CTLAP and sc-3136, the lowest interfering signal from each enzyme was identified and tabulated in Table 1. Also identified was the assay time at which the total competing signal (sum of CTB, CTV, and CTS) was lowest, and the relative intensity of all competing enzymes at that time point. […] The optimum results are achieved within 10 min incubation time, lending strength to the application of CTLAP for rapid detection of CTL, even in the presence of competing enzymes.
(§4) • 1. Recombinant human Cathepsin L/MEP protein (Active) • a. Product ab174030; Lot No. (Conc.) GR3210572-1 (N/A) Sino Biological • 1. Human Cathepsin B/CTSB Protein (His Tag) • a. Cat. No. 10483-H08H • 2. Human Cathepsin V/Cathepsin L2/Preproprotein Protein (His Tag) • a. Cat. No. 10093-H08H • 3. Human Cathepsin S/CTSS Protein (His Tag) • a. Cat. No. 10487-H08H Santa Cruz Biotechnology, Inc. • 1. […] Enzyme storage and preparation:
(§5) Cathepsins reconstituted as usual and diluted into cathepsin reaction buffers (pH 5.0 or 6.5) in an opaque-bottom 96-well plate. Probes added quickly to each active well, then emission measured immediately on BioTek Synergy H1 plate reader, collecting consecutive 36 sec runs over the first 15 min of reaction time. Final probe concentration was 5 uM and final enzyme concentration was 5 nM.

CTB, CTV, and CTS = assay: Time-course cathepsin assay, total competing signal (sum of CTB, CTV, and CTS) normalized to CTL; format: biochemical, human; conditions: 5 uM probe, 5 nM enzyme
Description: as §1, §2, §3
Table 1. Signal generated by CTB, CTV, and CTS, or all three enzymes together, relative to CTL signal at that time point. The lowest competing signal over the time course in FIG. 5 was selected for each individual enzyme, as well as for the sum of signals from all three enzymes. The time point at which the sum of all competing signals is lowest is also listed.
• 1. Recombinant human Cathepsin L/MEP protein (Active) • a. Product ab174030; Lot No. (Conc.) GR3210572-1 (N/A) Sino Biological • 1. Human Cathepsin B/CTSB Protein (His Tag) • a. Cat. No. 10483-H08H • 2. Human Cathepsin V/Cathepsin L2/Preproprotein Protein (His Tag) • a. Cat. No. 10093-H08H • 3. Human Cathepsin S/CTSS Protein (His Tag) • a. Cat. No. 10487-H08H Santa Cruz Biotechnology, Inc. • 1. […]
as §5, with “Final probe concentration was 5 uM and final enzyme concentration was 5 nM.” left out

[2] = molecular target: CTB (Human Cathepsin B/CTSB Protein) (Homo sapiens, UniProt P07858); assay: Time-course cathepsin assay, CTB signal normalized to CTL; format: biochemical; conditions: 5 uM probe, 5 nM enzyme, lowest competing signal over time course
Description: as §1, §2, §3, §4, §5

[3] = molecular target: T2, CTS (Human Cathepsin S/CTSS Protein) (Homo sapiens, UniProt P25774); assay: Time-course cathepsin assay, CTS signal normalized to CTL; format: biochemical; conditions: 5 uM probe, 5 nM enzyme, lowest competing signal over time course
T2 construct: His; purchased Sino Biological 10487-H08H
Description: as §1, §2, §3, §4, §5

[4] = Background emission intensity of probes in buffer without enzyme; format: physicochemical; conditions: for emission intensity (background): stocks of equal absorbance at 330 nm, quadruplicate
Experimental: This is attributed to the lower emission intensity observed in CTLAP in buffer without enzyme; the measured emission intensity of the compound at 5 μM is consistently 6- to 8-fold lower than that of sc-3136 (FIG. 6). As low background signal can improve the sensitivity and detection limit of fluorogenic assays, we sought to identify the cause of the low background intensity of CTLAP. We first examined the spectral and photophysical properties of the compound to confirm that this low background intensity was not an artifact of experimental methods.
We next tested hypothesis (2), that the emission intensity measured for CTLAP or sc-3136 was somehow compromised by the experimental conditions or by the structural differences of the compounds.
To duplicate unexpected absorbances from 4-131, stocks of probes from 4-128 used to create true 50 uM stocks. UV absorbance at 330 nm measured in a 96-well plate, then 150 uL transferred to an opaque-bottom plate and emission intensity (350/445 nm) was measured. Experiments run in quadruplicate, with a buffer blank. Measured on a BioTek Synergy H1.
50 uL of these solutions were diluted with 150 uL cathepsin L reaction buffer (pH 5.0) to give solutions of 5 uM compound in 25% DMSO/buffer. These samples were used to measure UV-Vis spectra (250-400 nm) on a Shimadzu UV-2700. A blank solution of 25% DMSO/buffer was used to baseline the instrument. Between samples, the cuvette was flushed with 200 uL DMSO, drained, and the next sample was added.
The remaining 150 uL of solution was diluted with 450 uL buffer to give 600 uL of 5 uM compound in 25% DMSO/buffer. The solution was transferred to an opaque-bottom 96-well plate, in three aliquots of 200 uL. The plate was used to measure emission and excitation spectra, and quantitative endpoint emission intensities. All spectral scans were collected at 50 Gain, in 5 nm steps.

[5] = Molar attenuation coefficient and quantum yield; format: physicochemical; conditions: for ε × 10^−3 (molar attenuation coefficient): absorption at 350 nm, standardized against 4-methylumbelliferone (MU); for ϕF (quantum yield): excitation 350 nm, emission 380-600 nm, standardized against MU
Experimental: To determine quantum yields, standard curves of CTLAP and sc-3136 were constructed between 0-10 μM in buffer, and the absorbance and total emission was measured. Values for the molar attenuation coefficient and quantum yield were standardized using measured absorption and emission intensity of 4-methylumbelliferone (MU) and its literature quantum yield and molar attenuation coefficient^14. Absorption of the solutions at 350 nm was measured, and all three compounds reported good (R^2>0.96) linear fit with increasing concentration (FIG. 10A). To measure total emission intensity, the emission spectrum of each compound was collected between 380-600 nm at an excitation wavelength of 350 nm; the area under the emission curve was calculated and graphed as a function of absorption value at 350 nm for each sample (FIG. 10B).
Compounds were compared to 4-methylumbelliferone (4-MU) and 2,4-difluoro-4-methylumbelliferone (DiFMU).
To construct calibration curves, stock solutions of 4-MU and DiFMU were prepared at ˜1 mM, then diluted with buffer (carbonate buffer, pH 10) to 50 uM. From these solutions, standard curves were constructed at 50, 25, 10, 5, and 1 uM by dilution with carbonate buffer, pH 10.1. Solutions were plated in 96-well plates. Absorbance at 350 nm was measured, and the fluorescence curve at 350 nm excitation and 380-600 nm was measured. The absorbance at 350 nm was graphed against the area under the curve (AUC) of the fluorescence spectrum from 380-600 nm, and the slope of each line was used to calculate the quantum yield according to the equation: […]

[6] = standard, literature value; cited from earlier work
[7] = molecular target: T3, CTL (Recombinant human Cathepsin L) (Homo sapiens, UniProt P07711); assay: HPLC analysis of probe processing by CTL; format: biochemical; conditions: incubated with CTL in buffer at pH 5.0
T3 construct: purchased Abcam ab174030
Experimental: To confirm recognition of CTLAP by CTL, the probe was incubated with CTL in buffer at pH 5.0, and the probe was examined by HPLC analysis (FIG. 2). The compound alone in buffer retained maximum absorption at 330 nm.
[4-105] Cathepsin L reconstituted as per manufacturer's instructions, then diluted in a preliminary cathepsin storage buffer, in line with a literature procedure^16 (100 mM NaOAc/MaOH, 100 mM NaCl, 10 mM DTT, 1 mM EDTA, pH 5.5). Frozen in −80° C. freezer, and a portion removed and diluted in more cathepsin storage buffer to create 100 nM stock.
In opaque-bottom […], buffer (unfiltered) plated, then probes added, then enzyme added. Final solution in each well was 5 uM probe, 5 nM CTL, 10% DMSO/NaOAc buffer. Incubated at 37° C., removed at 10 min, 30 min, 1 h, and 4 h for measurement on plate reader (Synergy H1). […] Stored in tin foil at rt for 2 days, then stored in fridge.
To observe probe conversion, a well was diluted with DI water and injected into HPLC. […] The UV absorption traces of the new product(s) matched that of AMC.

[8] = molecular target: T3, CTL (Recombinant human Cathepsin L); assay: Probe activation by CTL, turn-on ratio and selectivity; format: biochemical
Experimental: as §1
To determine the relative selectivity of either probe for CTL, we examined the turn-on ratio (TOR) of the probes in response to each enzyme over the first hour of incubation by dividing the emission intensity at each time point by the average intensity of the probe in buffer without enzyme (FIG. 4).
as §4
Enzyme stocks (2.5 uM) were thawed and diluted to 100 nM with cathepsin storage buffer (pH 5.5). From calibrated probe stocks were created 50 uM working stocks in DMSO (3-157 accidentally prepared to 62.5 uM instead). In a 96-well plate, solutions of cathepsin reaction buffer (either pH 5.0 or 6.5), enzyme (5 nM), and probe (5 uM) were prepared. Probe added last to the reaction wells, then read in Synergy H1 plate reader immediately (˜5 min) for emission intensity at 350-445 nm. The plate was read at various time points, then stored in fridge overnight but not quenched. The pH 5.0 plate was read again after 48 h to capture completed reaction stage, and to collect emission spectra at 350 nm excitation for both caged and activated compound wells. […]
as §5, with “Final probe concentration was 5 uM and final enzyme concentration was 5 nM.” left out

T2 sequence (P25774 115-331): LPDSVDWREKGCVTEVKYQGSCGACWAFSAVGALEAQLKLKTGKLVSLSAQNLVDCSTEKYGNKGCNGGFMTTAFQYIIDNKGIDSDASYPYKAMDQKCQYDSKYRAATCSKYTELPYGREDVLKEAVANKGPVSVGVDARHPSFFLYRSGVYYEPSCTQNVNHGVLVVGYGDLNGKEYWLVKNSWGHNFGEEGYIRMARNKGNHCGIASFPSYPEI
T1 sequence (O60911 114-334): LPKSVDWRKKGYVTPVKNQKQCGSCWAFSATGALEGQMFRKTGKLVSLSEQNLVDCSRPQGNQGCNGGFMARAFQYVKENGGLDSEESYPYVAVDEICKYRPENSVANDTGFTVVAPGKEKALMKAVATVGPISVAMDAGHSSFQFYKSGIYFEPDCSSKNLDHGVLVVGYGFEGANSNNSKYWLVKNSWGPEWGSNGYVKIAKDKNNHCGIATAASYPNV
T3 sequence (P07711 114-333): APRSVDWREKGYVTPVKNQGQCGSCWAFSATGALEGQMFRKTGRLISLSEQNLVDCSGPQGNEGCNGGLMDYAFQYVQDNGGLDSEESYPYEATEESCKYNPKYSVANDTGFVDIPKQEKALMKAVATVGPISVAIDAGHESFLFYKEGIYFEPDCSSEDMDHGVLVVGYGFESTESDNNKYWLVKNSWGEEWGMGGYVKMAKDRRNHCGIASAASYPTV

SMILES | Optimal (lowest) CTV signal normalized to CTL ([1]; pH 5.0) [%] | Optimal (lowest) CTV signal normalized to CTL ([1]; pH 6.5) [%] | Lowest sum of signals from all three enzymes (B + V + S) normalized to CTL (CTB, CTV, and CTS; pH 5.0) [%] | Lowest sum of signals from all three enzymes (B + V + S) normalized to CTL (CTB, CTV, and CTS; pH 6.5) [%] | Optimal (lowest) CTB signal normalized to CTL ([2]; pH 5.0) [%] | Optimal (lowest) CTB signal normalized to CTL ([2]; pH 6.5) [%] | Optimal (lowest) CTS signal normalized to CTL ([3]; pH 5.0) [%] | Optimal (lowest) CTS signal normalized to CTL ([3]; pH 6.5) [%] | emission intensity (background) ([4]; 350/445 nm) [rfu] | ε × 10^−3 (molar attenuation coefficient) [5] | ϕF (quantum yield) [5] | other results
Cc1cc(=O)oc2cc(NC(=O)C(CCCN=C(N)N)NC(=O)C(Cc3ccccc3)NC(=O)OCc3ccccc3)ccc12 (stereo not drawn) [sc-3136, Z-FR-AMC] (Cbz-Phe-Arg-{AMC}; configuration not given here) | 14 | 16 | 39 | 46 | 16 | 21 | 7 | 7 | 4.8e4 | 7.5 | 0.32 | ratio of background intensity for sc-3136 over 3-157 ([4]; 350/445 nm): 7.8 ×; emission intensity ratio between sc-3136 and CTLAP ([4]; excitation at 330 nm): 6.9 fold; emission intensity ratio between sc-3136 and CTLAP ([4]; excitation at 350 nm): 6.3 fold
Cc1cc(=O)oc2cc(O)ccc12 [MU, 4-methylumbelliferone] | – | – | – | – | – | – | – | – | – | – | – | ε × 10^−3 (molar attenuation coefficient) [6]: 19.3; ϕF (quantum yield) [6]: 0.63
Cc1cc(=O)oc2cc(NC(=O)C(CCCCN)NC(=O)C(Cc3ccc(-c4cccs4)cc3)NC(=O)OCc3ccccc3)ccc12 (centres unmarked) [CTLAP] | 10 | 15 | 31 | 25 | 15 | 6 | 1 | 1 | 6.1e3 | 11.0 | 0.02 | conversion of probe to free AMC peak (HPLC) [7]: full conversion; selectivity for CTL over other cathepsins [8]: 6- to 10 fold; turn-on ratio (TOR) relative to that of sc-3136 ([8]; after 1 h incubation): approximately 4 fold; increase in emission intensity ([8]; within 10 min of incubation with CTL): 24 fold; emission intensity in buffer without enzyme, fold lower than sc-3136 ([4]; compound at 5 μM, 350 nm excitation, 445 nm emission): 6- to 8 fold
